Here are results for 1 compound from US20240408169A1 (priority 2023, published 2024).

For the series the following is noted: from (S,Z)-2-((((9H-fluoren-9-yl)methoxy)carbonyl)(methyl)amino)-9-((S)-2-((S)-2-(12-azaneyl)-N,4-dimethylpentanamido)-3-(5-chloro-2-cyclopropoxypyridin-3-yl)-N-methylpropanamido)non-4-enoic acid TFA salt; amide bond; 16-membered ring; PyBOP/HOAt/DIEA; DCM; 2.6 mM; 25.0 °C.

As for `CCN(C(=O)OC1c2ccccc2-c2ccccc21)[C@H]1C/C=C\CCCCN(C)C(=O)[C@H](Cc2cc(Cl)cnc2OC2CC2)N(C)C(=O)[C@H](CC(C)C)NC1=O`, the ring closure, isolated yield was 30%.
